Marks after values point to notes of the source that are not given here.
Experiments:
[1] = system: 2,985 participants free of prevalent diabetes at baseline; assay: Cardiovascular Health Study: plasma phospholipid fatty acids and incident diabetes mellitus (Cox proportional-hazards); assay type: in vivo, human; settings: for RR of diabetes per SD: per each higher SD of the plasma phospholipid fatty acid, multivariable-adjusted (covariates as in Table 4)
Procedure: Plasma phospholipid fatty acids, anthropometry, blood lipids, inflammatory markers, and glucose-insulin levels were measured at baseline using standardized methods. Independent determinants of trans-palmitoleate and relationships of trans-palmitoleate with metabolic risk factors were investigated using multivariable-adjusted linear regression.
Multivariable model adjusted for age (years), gender (male/female), race (white/nonwhite), education (<high school, high school, some college, college graduate), enrollment site (four sites), smoking (never, former, current), body mass index (kg/m^2), waist circumference (cm), coronary heart disease (yes/no), physical activity (kcal/wk), alcohol use (six categories), and consumption of carbohydrate (% energy), protein (% energy), red meat (servings/week), whole-fat dairy foods (6 categories), low-fat dairy foods (five categories), and total energy (kcal/d).
Participants were followed by means of annual examinations for 10 years with interim and subsequent 6-month telephone contacts. Ives et al., 5 Ann. Epidemiol. […] At each visit, detailed medication information was obtained using medication inventories. At baseline, study interviewers visited participants in their homes and asked to see all prescription medications they had taken in the previous 2 weeks. At follow-up exams, participants brought to clinic all prescription medications taken in the previous 2 weeks. Drug names, doses, and frequencies were coded according to prescription medication Medispan files.
Relationships between phospholipid fatty acids were evaluated using Spearman correlation. Trans-palmitoleate levels were evaluated in sex-specific quintiles as indicator variables and continuously per SD difference. Independent demographic and lifestyle determinants of trans-palmitoleate were evaluated using multivariable-adjusted linear regression with trans-palmitoleate as the dependent variable. Multivariable-adjusted relationships of trans-palmitoleate with metabolic risk factors (transformed for normality as appropriate) were evaluated using linear regression with trans-palmitoleate as the independent variable. Quintiles were evaluated as ordinal variables to assess trend, to assess effect modification using the Wald test for a multiplicative interaction term, and to assess differences in baseline characteristics by means of linear or logistic regression. […] To minimize potential confounding, covariates were selected based on biologic interest, being well-established risk factors for metabolic risk, or associations with exposures/outcomes in the present cohort. […] Analyses were performed using Stata10.1 (College Station, Tex.), two-tailed alpha=0.05.

[2] = system: 3,736 U.S. men and women in the Cardiovascular Health Study; assay: Cardiovascular Health Study: multivariable-adjusted relationships of plasma phospholipid trans-palmitoleate with metabolic risk factors; assay type: in vivo, human; settings: for BMI / Blood Pressure: Diastolic / Blood Pressure: Systolic / Fasting insulin / HOMA-IR / Total/HDL-C ratio / Waist circumference: adjusted mean
Procedure: The present inventors investigated relationships of circulating trans-palmitoleate levels with metabolic risk and incident diabetes mellitus among 3,736 U.S. men and women in the prospective Cardiovascular Health Study. Plasma phospholipid fatty acids, anthropometry, blood lipids, inflammatory markers, and glucose-insulin levels were measured at baseline using standardized methods. Independent determinants of trans-palmitoleate and relationships of trans-palmitoleate with metabolic risk factors were investigated using multivariable-adjusted linear regression. Relationships with incident diabetes (304 incident cases) were investigated using Cox proportional-hazards. Validation for metabolic risk factors was performed in a second independent cohort of 327 generally healthy women.
CHS design and recruitment have been described. Fried et al., 1 Ann. Epidemiol. 263 (1991). Briefly, 5,201 ambulatory, non-institutionalized adults age ≥65 were selected randomly and then enrolled in 1989 to 1990 from Medicare eligibility lists in 4 U.S. communities (Forsyth County, NC; Sacramento County, CA; Washington County, MD.; Allegheny County, PA); an additional 687 black participants were recruited similarly and enrolled in 1992. Among all eligible adults contacted, 57% agreed to enroll. Baseline in-clinic evaluations included standardized physical examination, diagnostic testing, laboratory evaluation, and questionnaires on health status, medical history, and cardiovascular and lifestyle risk factors. Each center's institutional review committee approved the study; all participants provided informed written consent.
Plasma phospholipid fatty acids were measured in 3,736 individuals using 1992 blood samples, considered to be the baseline for all present analyses. This included 3,238 participants randomly selected from individuals with available blood samples in 1992 and an additional 498 participants from a prior case-control study of myocardial infarction. All analyses accounted for this within-cohort sampling using inverse-probability-of-sampling weights. Plasma phospholipids were selected as an excellent marker of longer-term (4-8 week) circulating fatty acids, with similar responses as levels in erythrocyte membranes. Blood was drawn after a 12-hr fast, stored (−70° C.), and shipped on dry ice for long-term centralized storage (−80° C.). Under these conditions plasma phospholipid fatty acids are stable long-term, and in prior studies we observed no degradation, lipolysis, or oxidation after 10 years storage. Measurements were performed at the Fred Hutchinson Cancer Research Center, providing quantitative measurement of 45 fatty acids as percent of total fatty acids. Total lipids were extracted from plasma using methods of Folch, and phospholipids separated from neutral lipids by one-dimensional TLC. Fatty-acid-methyl-ester (FAME) samples were prepared by direct transesterification using methods of Lepage and separated using gas chromatography (Agilent5890 gas-chromatograph-FID-detector; Supelco fused-silica 100 m capillary column SP-2560; initial 160° C. 16 min, ramp 3.0° C./min to 240° C., hold 15 min). Identification, precision, and accuracy were continuously evaluated using model mixtures of known FAMEs and established in-house controls, with identification confirmed by GC-MS at USDA (Peoria, Ill.) or for trans-fats by silver-ion TLC. CVs were 2.5% for trans-palmitoleate and <3% for most fatty acids.
At study-clinic examinations, risk factors were measured by trained personnel. Fried et al., 1991. Anthropometric measures including weight, height, and waist circumference were collected using standard procedures and used to calculate body mass index (BMI). Fasting total cholesterol, HDL-C, and triglycerides were measured according to CDC methods. LDL-C was calculated according to Friedewald equation, excluding individuals with hypertriglyceridemia. […]

C2C12 myotubes = assay: Glucose uptake assay in differentiated C2C12 myotubes; assay type: cell-based; settings: 0.25 mM for 6 hr, values only in FIG. 1
Procedure: FIG. 1 is a bar graph showing data from differentiated C2C12 myotubes that were incubated with control medium, or medium with 0.25 mM palmitate (C16) or trans-16:1n7-palmitoleate for 6 hours; glucose uptake was assayed as described herein.
C2C12 myoblasts were maintained in 20% fetal bovine serum. To differentiate the myoblasts, cells were plated in 12-well plates coated with 0.2% gelatin and medium changed to 2% horse serum upon confluence. Five days post-differentiation, C2C12 myotubes were incubated in serum-free medium with 0.5% bovine serum albumin (Sigma) and indicated fatty acids at a final concentration of 0.25 mM for 6 hr. Glucose uptake assay was performed as described previously, with modifications. Somwar et al., 276 J. Biol. Chem. 46079 (2001). Briefly, cells were washed twice with 500 μl warm Krebs-Ringer-Hepes (KRH) buffer and 1 ml of KRH buffer was added into each wells. ^3H 2-D-Glucose (0.5 μCi/well) was added and cells were kept in incubator for 10 min. Medium was then removed and cells washed twice with ice-cold KRH buffer. Cells were plated on ice and lysed in 500 μl 0.1% SDS. Aliquots of 400 μl cell lysate were used for scintillation counting and protein assay quantification assay was performed on the rest of cell lysate.

[3] = system: 327 generally healthy women in the Nurses' Health Study; assay: Nurses' Health Study validation cohort: erythrocyte and plasma trans-palmitoleate versus metabolic risk factors; assay type: in vivo, human; settings: multivariable-adjusted level across quartiles
Procedure: For independent validation, we evaluated the association of trans-palmitoleate measured in erythrocyte membranes and plasma (Sun et al., 88 Am. J. Clin. Nutr, 216 (2008)), with metabolic risk factors in a cohort of 327 generally healthy women, age=60.4±6.1 years, in the Nurses' Health Study (NHS). Relationships were evaluated for HDL-C, total:HDL-C, interleukin-6, CRP, and hemoglobinAlc. Because many samples were nonfasting, triglycerides and LDL-C were not evaluated; the number of subjects was too small to evaluate incident diabetes. Multivariable models were adjusted for age, smoking, physical activity, alcohol intake, family history, hypertension, hormone use, fasting status, and dietary carbohydrate, protein, polyunsaturated fats, saturated fat, dietary fiber, and total energy. We also evaluated correlations of trans-palmitoleate levels in plasma vs. erythrocytes in NHS (Spearman correlation[r]=0.74); and in phospholipids vs. triglycerides in CHS (n=104; r=0.54).

[4] = system: OB/OB, wild-type, and high-fat diet mice; assay: Tolerability of oral gavage administration in mice; assay type: in vivo; settings: 200 mg/kg/day to 2 g/kg/day for 5 weeks in PEG 300
Procedure: Trans-palmitoleate was obtained in pure, powdered form from Nu-Check Prep, Inc. (Elysian, Minn.) and dissolved in a polyethylene glycol vehicle (PEG 300). Mice were administered, by gavage, trans-palmitoleate in doses ranging from 200 mg/kg/day to 2 g/kg/day for 5 weeks. […] In OB/OB mice, after 2 weeks of treatment, plasma lipid analysis was determined from samples taken after 6 hr of fasting, 30 hr after last trans-palmiloleate administration. Additionally, research diets comprising mouse chow at 2% trans-palmitoleate % total food weight can be formulated.

[5] = across quintiles, further adjusted for adiposity
[6] = across quintiles, multivariable-adjusted
[7] = quintile I (median 0.13% of total fatty acids)
[8] = quintile II (median 0.16% of total fatty acids)
[9] = quintile III (median 0.18% of total fatty acids)
[10] = quintile IV (median 0.21% of total fatty acids)
[11] = quintile V (median 0.25% of total fatty acids)
[12] = erythrocyte trans-palmitoleate, first value
[13] = erythrocyte trans-palmitoleate, second value
[14] = plasma trans-palmitoleate, first value
[15] = plasma trans-palmitoleate, second value

SMILES: CCCCCCCCCCCCCCC(=O)O [15:0, pentadecanoic acid, reference compound]
- RR of diabetes per SD [1]: 1.01

SMILES: CCCCCCCCCCCCCCCCC(=O)O [17:0, reference compound]
- RR of diabetes per SD [1]: 0.98

SMILES: CCCCCC/C=C/CCCCCCCC(=O)O [trans-palmitoleate, trans-C16:1n7-palmitoleic acid]
- association with fibrinogen ([2]; P=0.006, limited to lower levels in the lowest quintile only): higher fibrinogen
- difference in CRP across quintiles [2, 5]: −13.8%
- difference in HDL-C across quintiles [2, 5]: +1.9%
- difference in fasting insulin across quintiles [2, 5]: −13.3%
- difference in insulin resistance assessed by HOMA-IR across quintiles [2, 5]: −16.7%
- difference in total:HDL-C ratio across quintiles [2, 5]: −4.7%
- difference in triglycerides across quintiles [2, 5]: −19.0%
- difference in BMI across quintiles [2, 6]: −1.8%
- difference in waist circumference across quintiles [2, 6]: −1.8%
- association with LDL-C, fasting glucose, or BP ([2]; multivariable-adjusted): not associated
- BMI [2, 7]: 26.7 kg/m^2
- Blood Pressure: Diastolic [2, 7]: 71 mmHg
- Blood Pressure: Systolic [2, 7]: 137 mmHg
- Fasting insulin [2, 7]: 11.3 mU/l
- HOMA-IR [2, 7]: 3.0 units
- Total/HDL-C ratio [2, 7]: 4.3
- Waist circumference [2, 7]: 97.7 cm
- BMI [2, 8]: 27.0 kg/m^2
- Blood Pressure: Diastolic [2, 8]: 71 mmHg
- Blood Pressure: Systolic [2, 8]: 136 mmHg
- Fasting insulin [2, 8]: 11.0 mU/l
- HOMA-IR [2, 8]: 2.9 units
- Total/HDL-C ratio [2, 8]: 4.3
- Waist circumference [2, 8]: 98.4 cm
- BMI [2, 9]: 26.8 kg/m^2
- Blood Pressure: Diastolic [2, 9]: 70 mmHg
- Blood Pressure: Systolic [2, 9]: 136 mmHg
- Fasting insulin [2, 9]: 10.7 mU/l
- HOMA-IR [2, 9]: 2.8* units
- Total/HDL-C ratio [2, 9]: 4.2
- Waist circumference [2, 9]: 97.2 cm
- BMI [2, 10]: 26.9 kg/m^2
- Blood Pressure: Diastolic [2, 10]: 71 mmHg
- Blood Pressure: Systolic [2, 10]: 136 mmHg
- Fasting insulin [2, 10]: 10.2† mU/l
- HOMA-IR [2, 10]: 2.7† units
- Total/HDL-C ratio [2, 10]: 4.1†
- Waist circumference [2, 10]: 97.4 cm
- BMI [2, 11]: 26.2 kg/m^2
- Blood Pressure: Diastolic [2, 11]: 71 mmHg
- Blood Pressure: Systolic [2, 11]: 136 mmHg
- Fasting insulin [2, 11]: 9.8‡ mU/l
- HOMA-IR [2, 11]: 2.5‡ units
- Total/HDL-C ratio [2, 11]: 4.1†
- Waist circumference [2, 11]: 96.0* cm
- glucose uptake (C2C12 myotubes): Positive Glucose Uptake
- CRP [3, 12]: 3.3 mg/L
- hemoglobinAlc [3, 12]: 5.92
- interleukin-6 (IL-6) [3, 12]: 2.3 pg/mL
- total:HDL-C [3, 12]: 4.21
- CRP [3, 13]: 2.1 mg/L
- hemoglobinAlc [3, 13]: 5.66
- interleukin-6 (IL-6) [3, 13]: 1.8 pg/mL
- total:HDL-C [3, 13]: 3.87
- HDL-C [3, 14]: 56.5 mg/dL
- hemoglobinAlc [3, 14]: 5.88%
- total:HDL-C [3, 14]: 4.28
- HDL-C [3, 15]: 61.7 mg/dL
- hemoglobinAlc [3, 15]: 5.64%
- total:HDL-C [3, 15]: 3.63
- extreme-quintile RR of new-onset diabetes ([1]; additional adjustment for levels of both 15:0 and 17:0): 0.39
- extreme-quintile RR of incident diabetes ([1]; additional adjustment for vaccenic acid (trans-18:1n-7)): 0.43
- extreme-quintile RR of incident diabetes ([1]; men): 0.29
- RR of diabetes per SD [1]: 0.72
- multivariable-adjusted RR of diabetes lower per each higher SD ([1]; per each higher SD of trans-palmitoleate): 28%
- No. of incident cases of diabetes mellitus ([1]; quintile I, 5,595 person-years of follow-up): 93
- Hazard ratio (RR) of incident diabetes, age- and sex-adjusted ([1]; quintile II vs quintile I): 0.84
- Hazard ratio (RR) of incident diabetes, multivariate-adjusted ([1]; quintile II vs quintile I): 0.79
- No. of incident cases of diabetes mellitus ([1]; quintile II, 5,435 person-years of follow-up): 68
- Hazard ratio (RR) of incident diabetes, age- and sex-adjusted ([1]; quintile III vs quintile I): 0.88
- Hazard ratio (RR) of incident diabetes, multivariate-adjusted ([1]; quintile III vs quintile I): 0.89
- No. of incident cases of diabetes mellitus ([1]; quintile III, 5,556 person-years of follow-up): 59
- Hazard ratio (RR) of incident diabetes, age- and sex-adjusted ([1]; quintile IV vs quintile I): 0.44
- Hazard ratio (RR) of incident diabetes, multivariate-adjusted ([1]; quintile IV vs quintile I): 0.41
- No. of incident cases of diabetes mellitus ([1]; quintile IV, 5,811 person-years of follow-up): 46
- Hazard ratio (RR) of incident diabetes, age- and sex-adjusted ([1]; quintile V vs quintile I): 0.36
- Hazard ratio (RR) of incident diabetes, multivariate-adjusted ([1]; quintile V vs quintile I): 0.38
- No. of incident cases of diabetes mellitus ([1]; quintile V, 5,469 person-years of follow-up): 38
- extreme-quintile RR of incident diabetes ([1]; women): 0.41
- tolerability [4]: well-tolerated, with no ill effects observed

SMILES: CCCCCC/C=C/CCCCCCCCCC(=O)O [Vaccenic acid, vaccenic acid, reference compound]
- RR of diabetes per SD [1]: 0.89
